Residues, ends and D or L forms follow the SMILES beside them.

As for `C[C@@H]1CN(c2ccc(C(F)(F)F)nc2)C[C@H](C)N1CC(=O)N1CC=C(c2ccc3c(c2)OCCO3)CC1`, the melting point was 200 to 201 °C.
Under `C/C=C1\OC(=O)c2c(Oc3nc(OC)cc(OC)n3)cccc21` stands 163 to 165 °C; under `COC(=O)C(Cc1ccccc1)NC(=O)C(CC(=O)O)NC(=O)C1CCCN1` (stereo not drawn) (H-Pro-Asp-Phe-OMe; configuration not given here), 238 to 242 °C; under `CCOc1cncc(I)n1`, 36 to 37 °C.
In turn, `CN1CCN(c2ncc3c(=O)c(C(=O)O)cn(C)c3n2)CC1` returned a melting point of 280 °C.
`COc1nc(NC(=O)NS(=O)(=O)c2c(Br)csc2C(=O)c2cccs2)nc(OC)n1`: the melting point is 115 °C.
Under `CN1CCN(CC2CCN(c3ncc4ncnc(Nc5ccc(F)c(Cl)c5)c4n3)CC2)CC1` stands 138 to 140 °C; under `CN(C(=O)c1ccccc1-c1ccc(F)cc1)C1N(C)C(c2ccc(F)cc2)=NC1(C(F)(F)F)C(F)(F)F` (centres undefined), 112 to 113 °C; under `Nc1n[nH]cc1C(=O)NC/C=C\COc1cc(CN2CCCCC2)ccn1`, 172 to 174 °C.
Under `O=S(=O)(O)CCCCN1CCN(C(c2ccc(F)cc2)c2ccccn2)CC1` (centres undefined) stands 231 to 232 °C; under `CC(C)(C(=O)O)c1cccc(O[Si](C)(C)C(C)(C)C)c1`, 72 to 74 °C.
Under `Cc1c(Cc2ccccc2)c(=O)n(C)c2cc(OCc3nnn[nH]3)cc(OCc3nnn[nH]3)c12` stands 250 to 253 °C.
`NC(=O)c1ccc(NC2CCN(Cc3ccccc3)C2)cc1` (centres undefined) yielded a melting point of 160 to 162 °C.
As for `CC(C)(C)OC(=O)CC(=O)c1ccc(C#N)s1`, the figure is 78 °C.
As for `CCN(C=O)c1nc2ccc(CCc3ccco3)cc2o1`, the figure is 54 to 58 °C; as for `C=CCCn1c(C(=O)c2cc(C)cc(C#N)c2)c(C(C)C)c(=O)[nH]c1=O`, 133 to 134 °C; as for `CCOC(=O)NCCS(=O)CC(=O)NCC=CCOc1cccc(CN2CCCCC2)c1` (centres undefined), 64.7 to 66.1 °C.
Under `COc1cccc2c1CCc1ccn(CCNC(C)=O)c1-2` stands 133 °C.
Turning to `CCc1ccc(Cc2cn(C3OC(COC(=O)c4ccccc4)C(O)C(OC(=O)c4ccccc4)C3OC(=O)c3ccccc3)c3cccc(Cl)c23)cc1` (centres undefined), the melting point lay within 192 to 193 °C.
Under `O=c1c2nc[nH]c2nc2n1CCN2Cc1ccc(Cl)cc1` stands 314 to 316 °C; under `CONc1cc(Cl)nc(S(C)(=O)=O)n1`, 135 °C.
Under `CCN(CC)C(=S)SCCNC(=O)CCNC(=O)OCc1ccccc1` stands 90 to 93 °C; under `Cc1cc(C)c2c(c1O)C(NCc1ccccc1)=C(c1ccccc1)C2`, 214 to 215 °C.
As for `Cc1cc(CC(O)CN2C(=O)CCC2=O)cc(C(C)(C)C)c1O` (centres undefined), the figure is 218 °C; as for `Oc1ccc(OCCCCCCCCOc2ccc(O)cc2)cc1`, 151 to 154 °C.
Consider `COc1cc(OC)nc(NC(=O)NS(=O)(=O)c2ncccc2C(CF)OC(C)=O)n1` (centres undefined), for which the melting point is 145 to 147 °C.
Under `COC(=O)CC(N)c1cc2ccccc2nc1Cl` (centres undefined) stands 103 to 106 °C; under `Cn1cccc1CC(=O)O`, 97 to 100 °C; under `Cc1nc(Cl)c2c(n1)c(C)nn2CC(F)(F)F`, 70 °C.
As for `C=CCOC(=O)c1ccc(NC(=O)C(=NO)c2ccc3c(c2)C(C)(C)CCC3(C)C)cc1O`, the figure is 108 to 109 °C.
Under `Cc1c(C(=O)c2ccc(Cl)cc2)oc2cccc(O)c12` stands 238 to 241 °C; under `O=[N+]([O-])N(c1ccccc1)c1ccccc1`, 118 °C.
Regarding `O=C(O)CCCc1c(Cl)cccc1-c1ccccc1`, the melting point fell in the range of 74 to 76 °C.
Under `Cc1nc2c(OCc3c(Cl)ccc(NC(C)C)c3Cl)cccn2c1Br` stands 133 to 134 °C.
Under `CN(Cc1ccc2c(Br)c(OCc3nnn[nH]3)ccc2c1)C(=O)c1cn(Cc2ccccc2)c2ccccc12` stands 197 to 198 °C; under `Clc1cnc2ccc(Br)cc2n1`, 145 °C.
As for `CS(=O)(=O)c1ccc(-n2cnc(Cl)c2-c2ccc(Cl)cc2)cc1`, the figure is 222 to 223 °C; as for `Cc1c[nH]c2c(CCC#N)cccc12`, 146 to 148 °C; as for `CC(C)(C(N)=O)c1ccc(Cl)cc1`, 125 °C.
Consider `CN1CCN(CCCOc2ccc(Nc3ncc4ccc(-c5cccnc5)n4n3)cc2)CC1`, for which the melting point lay in the range of 135 to 139 °C.
Under `COc1ccc(/C=C/C(=O)Nc2cc3ccccc3cc2C(=O)O)cc1OC` stands 212 to 213 °C; under `CC(=O)Nc1cc2c3c(c1)c(=O)c(C(=O)O)cn3C(C)CC2` (centres undefined), over 310 °C; under `CC(=O)c1cc(N(C)C)ccc1NC(=O)c1ccccc1OCc1ccccc1`, 132 to 134 °C.
As for `CCCCc1nc(C(O)C(C)(C)C)c(C#N)n1Cc1ccc(-c2ccccc2-c2nnnn2C(c2ccccc2)(c2ccccc2)c2ccccc2)cc1` (centres undefined), the figure is 134 to 135 °C; as for `CC(=O)NC(C)Cc1ccccc1` (centres undefined), 91 to 93 °C.
As for `Cc1nc[nH]c1CSCCNC(=S)S`, the figure is 127 to 129 °C.
On to `CCCCCSc1cc(C(=O)O)cc(N)c1Oc1ccccc1`, for which the melting point came to 98 °C.
Under `O=C(OC1CCCCC1)c1ncn2c1[C@@H]1CCN1C(=O)c1c(Br)cccc1-2` stands 203 to 204 °C.
As for `CC(COc1ccccc1C1NC(C(=O)O)CS1)O[N+](=O)[O-]` (centres undefined), the figure is 127 to 130 °C; as for `CC(C)c1ccccc1N=C1N=CC(C)(C)CS1`, 155 to 157 °C; as for `CCn1c2ccccc2c2cc(C=Cc3ccc([N+](=O)[O-])cc3)ccc21`, 168 °C.
Under `Cn1c2ccc(F)cc2c(=O)n2nc(C#N)cc12` stands 331 to 340 °C; under `CCNC(=O)C(C)NC(=O)OCc1ccccc1` (centres undefined), 116 to 117 °C; under `CCC(=O)Nc1nc(C)c(C(=O)NCc2ccccc2)s1`, 175 to 176 °C.
`CCc1[nH]n(C2CCCC2)c2nc(=S)[nH]c(=O)c1-2` registered a melting point of 248 to 250 °C.
Under `CN1CCCN(c2ccc3nc4c(n3n2)CCCC4)CC1` stands 106 to 107 °C; under `Cc1cc(CN2C(=O)C(C3=NS(=O)(=O)c4c(CN(C)S(C)(=O)=O)cccc43)=C(O)C2C(C)(C)C)ccc1F` (centres undefined), 105 to 109 °C; under `Fc1ccc(F)c(CN2CCNc3ncc(-c4ccc(N5CCOCC5)cc4)cc32)c1Cl`, 217 to 219 °C.
Compound `CC(=O)OCC(ON1C(C)(C)CC(O)CC1(C)C)c1ccccc1` (centres undefined) displayed a melting point of 68 to 69 °C.
As for `CCC(Nc1cc(C)nc(Oc2c(C)cc(Cl)cc2C)c1C(=O)OC)C(C)O` (centres undefined), the figure is 133 to 135 °C.
For the compound `COc1ccccc1C1CC(=O)CC(c2ccccc2OC)N1C` (centres undefined), the melting point fell in the range of 146 to 148 °C.
Compound `COc1ccc(NC2(C#N)CCCCC2)cn1` displayed a melting point of 121 to 123 °C.
Under `CCCCCCCCCCCCCCCCCCNC(=O)O[C@@H]1CCCO[C@H]1COCc1ccccc1` (relative stereo) stands 84 to 86 °C; under `Cc1cc(F)ccc1C1=C(c2ccc(S(C)(=O)=O)cc2)CCC1`, 112 to 114 °C.

Broadly, the melting point is the temperature, or range, at which the solid turns liquid.
